The test system of series [1] is lung cancer (HOP-92) cell line. The series is described as follows: MTT antiproliferative assay, HOP-92. The format is cell-based, human. The conditions noted are these: for % viability: listed as STA. How it is done: […]. […] See Appendix B.
(§1) After 24 h of culture incubation and supernatants discarded.
(In general: Tetrazolium assays rely on reduction of a dye to a coloured formazan, in cell work by metabolically active cells.)

The test system of series [2] is breast cancer (T47D) cell line. The series is described as follows: MTT antiproliferative assay, T-47D. How it is done:
The median inhibitory concentration (IC50) and GI50 (average IC50) against the three cancer cell lines were calculated. See Appendix B.
Cells were cultured using DMEM (Invitrogen/Life Technologies) supplemented with 10% FBS (Hyclone,), 10 ug/ml of insulin (Sigma), and 1% penicillin-streptomycin. Plate cells (cells density 1.2 – 1.8 × 10,000 cells/well) in a volume of 100µl complete growth medium + 100 ul of the tested compound per well in a 96-well plate for 24 hours before the MTT assay. In atypical experiment, one hundred micro liters of serial 10-fold diluted sterile tested compounds were added to final concentrations of […] using culture media as negative control. After 24 h of culture incubation and supernatants discarded. HOP-92 lung, MOLT-4 leukemia, and T-47D breast cell lines were trypsinized and washed with Ca2/Mg2 free PBS (pH 7.2). we removed cultures from incubator into laminar flow hood or other sterile work area. […] Each test should include a blank containing complete medium without cells. […] Add reconstituted MTT in an amount equal to 10% of the culture medium volume. Return cultures to incubator for 2-4 hours depending on cell type and maximum cell density. […] Spectrophotometrically absorbance was measured at a wavelength of 570 nm. Measure the background absorbance of multiwell plates at 690 nm and subtract from the […] measurement. Results from all experiments were recorded and the percentage of viable cells was calculated.

For series [3], the system named is leukemia (MOLT-4) cell line. The series is described as follows: MTT antiproliferative assay, MOLT-4. The series is classed as cell-based, human. How it is done: as §1

SMILES strings stand for the structures. Several values for one entry are separate records, joined by “and”; a condition that tells them apart may be missing. Equal values may be shown once. Read-outs that look alike come from different tables or passages of the source.

The viability is a read-out of living cells in per cent, often relative to untreated cells. For orientation: IC50 means the concentration at which inhibition is half-maximal. For `CN[C@@H]1C[C@H]2O[C@@](C)([C@@H]1OC)n1c3ccccc3c3c4c(c5c6ccccc6n2c5c31)C(=O)NC4` [Staurosporine, reference compound], the “% viability” value in series [1] (HOP-92, MTT, 0.4uM) was 69.37%; in series [1] (HOP-92, MTT, 1.6uM), 61.2%; in series [1] (HOP-92, MTT, 6.3uM), 43.16%; in series [1] (HOP-92, MTT, 100uM) it was 17.16%; in series [2] (T47D, 1.6ug (log 0.193), listed as STA) it was 61.548% and 61.55%; in series [2] (human, 0.4 µM), 69.04%. Further, the “% viability” value in series [3] (MOLT-4, 0.4ug (log conc. -0.41), listed as STA) is 72.582% and 72.58%; in series [3] (MOLT-4, 1.6ug (log conc. 0.193), listed as STA), 62.059% and 62.06%; in series [3] (MOLT-4, 6.3ug (log conc. 0.796)), 51.82%; in series [3] (MOLT-4, 25ug (log conc. 1.398)), 36.23%; in series [3] (MOLT-4, 100ug (log conc. 2)), 24.46%. Besides, the viability at 0.4 µM in series [1] (Homo sapiens, HOP-92, HOP-92, MTT, 0.4uM) worked out at 69.4%; in series [2] (Homo sapiens, T47D), 69%. Also, in series [1] (Homo sapiens, HOP-92, HOP-92, MTT, 1.6uM), the viability at 1.6 µM came out at 61.2%. For the same compound, the viability at 6.3 µM in series [1] (Homo sapiens, HOP-92, HOP-92, MTT, 6.3uM) is 43.2%; in series [2] (Homo sapiens, T47D, 6.3uM (log 0.796)), 45.9%. Further, the viability at 25 µM is 24.7% in series [1] (Homo sapiens, HOP-92, HOP-92, MTT, 25uM) and 35% in series [2] (Homo sapiens, T47D, 25uM (log 1.398)). Also, the viability at 100 µM in series [1] (Homo sapiens, HOP-92, HOP-92, MTT, 100uM) is 17.2%; in series [2] (Homo sapiens, T47D, 100uM (log 2), MTT absorbance 450 nm) it was 29.6%. The IC50 came to 3.17 ± 0.19 µM in series [1] (Homo sapiens, HOP-92, MTT, read-out: Antiproliferative activity IC50 ± SEM, HOP-92) and 3.17 µM in series [1] (Homo sapiens, HOP-92, concentration used in RT-PCR, read-out: IC50).

The values above are taken from publication PMC12638379, “An innovative approach to development of new pyrazolylquinolin-2-one hybrids as dual EGFR and BRAF^V600E inhibitors” (Molecular Diversity, 2025).
